Measurements as given in patent US4875925A, “Herbicidal method using diflufenican” (May & Baker Limited, priority 1986, dated 1989).

How the values were obtained:
Format in all cases: in vivo
[1] = test system: Lamium purpureum; assay: Field control of Lamium purpureum in winter barley and winter wheat (Experiment 3); conditions: diflufenican 80 g/ha, trifluralin 800 g/ha, or both; for % weed phytotoxicity 72 days after spraying: in winter barley (variety Igri); for % weed phytotoxicity 98 days after spraying: in winter wheat (variety Galahad)
Excerpt: (§1) Diflufenican formulated as a 50% w/v aqueous suspension concentrate (Example 2), trifluralin as a 48% w/v emulsifiable concentrate (commercial product and a mixed formulation of diflufenican and trifluralin containing 44% w/v total active ingredient (Example 6) were applied at 0.16 l, 1.67 l and 2 l/ha respectively pre-emergence and just at emergence to winter barley and winter wheat to control Lamium purpureum pre-emergence under field conditions. The treatments were applied to three replicate 30 m^2 plots in a spray volume of 220 l/ha (winter barley) and 206 l/ha (winter wheat) using a motorised small plot sprayer. Visual % phytotoxicity was recorded and the results are given below.

[2] = test system: Winter barley (variety Igri); assay: Field crop phytotoxicity, winter barley (Experiment 3); conditions: diflufenican 80 g/ha, trifluralin 800 g/ha, or both
Excerpt: as §1

[3] = test system: Winter wheat (variety Galahad); assay: Field crop phytotoxicity, winter wheat (Experiment 3); conditions: diflufenican 80 g/ha, trifluralin 800 g/ha, or both
Excerpt: as §1

[4] = test system: Stellaria media; assay: Greenhouse post-emergence weed control, Stellaria media (Experiment 2); conditions: 2 leaf stage, 14 days after treatment
Description: (§2) Greenhouse experiment showing the nature of biological synergism between pendimethalin and diflufenican applied post-emergence
(§3) A similar experiment to that hereinbefore described in Experiment 1 was carried out with pendimethalin and diflufenican applied to either 4 plants of Stellaria media at the 2 leaf stage or 4 plants of Galium aparine at the 2 whorl (branching initiated) stage. The following 90% herbicidally effective doses (ED90) in grams of diflufenican per hectare were calculated from the mean percentage weed control 14 days after treatment.

[5] = test system: Alopecurus myosuroides; assay: Greenhouse pre-emergence weed control, pendimethalin and diflufenican (Experiment 1); conditions: 22 days after treatment
Description: Greenhouse experiment showing the nature of biological synergism between pendimethalin and diflufenican applied pre-emergence
A factorial experiment with 30 treatments was carried out to investigate the interaction of pendimethalin and diflufenican at a wide range of doses i.e. 0, 250, 500, 1000 and 2000 g/ha of pendimethalin plus diflufenican at 0, 31, 62, 125, 250 and 500 g/ha.
All treatments were made in an appropriate volume of water by using appropriate quantities of a 33% w/v emulsifiable concentrate of pendimethalin (commercial product) and diflufenican formulated as an experimental aqueous suspension concentrate (Example 2 hereinafter) containing 50% w/v active ingredient to give the above dose rates in a spray volume of 290 l/ha. All treatments were applied using a laboratory sprayer fitted with a Sparying Systems Teejet SS 8003E operating at 2.94 kgf/cm^2. Treatments were applied to about 20 Alopecurus myosuroides seeds sown 1 cm deep in a loamy soil in 7.5 cm square pots. There were 4 replicate pots per treatment which were arranged in a randomised block design in a glasshouse after treatment. The pots were watered by a combination of overhead irrigation and sub-irrigation. A visual assessment of weed control was made 22 days after treatment as a percentage compared to the untreated pots. […]

[6] = test system: Galium aparine; assay: Greenhouse post-emergence weed control, Galium aparine (Experiment 2); conditions: 2 whorl stage, 14 days after treatment
Description: as §2, §3

SMILES: CCCN(CCC)c1c([N+](=O)[O-])cc(C(F)(F)F)cc1[N+](=O)[O-] [Trifluralin, 2,6-dinitro-N,N-dipropyl-4-trifluoromethylaniline]
- % weed phytotoxicity 72 days after spraying [1]: 20%
- % weed phytotoxicity 98 days after spraying [1]: 5%
- Maximum % crop phytotoxicity [2]: 0%
- Maximum % crop phytotoxicity [3]: 0%

SMILES: O=C(Nc1ccc(F)cc1F)c1cccnc1Oc1cccc(C(F)(F)F)c1 [diflufenican, N-(2,4-difluorophenyl)-2-(3-trifluoromethylphenoxy)nicotinamide]
- ED90 (90% herbicidally effective dose) ([4]; diflufenican alone): 340 grams of diflufenican per hect
- ED50 (50% herbicidally effective dose) ([5]; diflufenican alone): 370 grams of diflufenican per hect
- % weed phytotoxicity 72 days after spraying [1]: 40%
- % weed phytotoxicity 98 days after spraying [1]: 80%
- Maximum % crop phytotoxicity [2]: 5.8%
- Maximum % crop phytotoxicity [3]: 0%
- ED90 (90% herbicidally effective dose) ([6]; diflufenican alone): > 500 grams of diflufenican per hect

SMILES: CCC(CC)Nc1c([N+](=O)[O-])cc(C)c(C)c1[N+](=O)[O-] [pendimethalin, N-(1-ethylpropyl)-3,4-dimethyl-2,6-dinitroaniline]
- ED90 of pendimethalin alone ([4]; pendimethalin alone): 1653 g/ha
- ED50 of pendimethalin alone ([5]; pendimethalin alone): 2071 g/ha
- ED90 of pendimethalin alone ([6]; pendimethalin alone): greater than 2000 g/ha
